This passage reports MIC99 and MIC90 results from ChEMBL document CHEMBL3045761, “One pot synthesis of some novel coumarins containing 5-(substituted-2-hydroxybenzoyl) pyridine as a new class of antimicrobial and antituberculosis agents” (2013).

Common to all, as to format: functional
Experiment [1] relates to Bacillus subtilis. Kind of experiment: Antibacterial activity against Bacillus subtilis MTCC 441 after overnight incubation by broth microdilution method.
For experiment [2], the system named is Candida albicans. Kind of experiment: Antifungal activity against Candida albicans MTCC 227 after overnight incubation by broth microdilution method. For orientation: Dilution methods test growth across graded concentrations, often in twofold steps.
Experiment [3] concerns Aspergillus niger. Kind of experiment: Antifungal activity against Aspergillus niger MTCC 282 after overnight incubation by broth microdilution method.
The subject of experiment [4] is Mycobacterium tuberculosis. The experiment is described as follows: Antitubercular activity against Mycobacterium tuberculosis H37Rv after 21 days by Lowenstein-Jensen method. The following applies: 504 h.
The subject of experiment [5] is Staphylococcus aureus. Kind of experiment: Antibacterial activity against Staphylococcus aureus MTCC 96 after overnight incubation by broth microdilution method.
The test system of experiment [6] is Salmonella typhi. Kind of experiment: Antibacterial activity against Salmonella enterica subsp. enterica serovar Typhi MTCC 98 after overnight incubation by broth microdilution method.
Experiment [7] concerns Escherichia coli. Kind of experiment: Antibacterial activity against Escherichia coli MTCC 443 after overnight incubation by broth microdilution method.

≈ marks a conversion by molar mass, not a printed value. Some results are limits rather than exact numbers.

`Cc1ccc(O)c(C(=O)c2ccc(-c3cc4cc(Br)ccc4oc3=O)nc2)c1`: the MIC99 in experiment [1] amounted to 500 µg/mL (≈ 1150 µM); in experiment [2] it was 500 µg/mL (≈ 1150 µM); in experiment [3] it was 500 µg/mL (≈ 1150 µM); in experiment [5] it was 500 µg/mL (≈ 1150 µM); in experiment [6], 100 µg/mL (≈ 229 µM); in experiment [7], 100 µg/mL (≈ 229 µM). In addition, in experiment [4], the MIC90 was 100 µg/mL (≈ 229 µM).

As for `COc1cccc2cc(-c3ccc(C(=O)c4ccccc4O)cn3)c(=O)oc12`, the MIC99 in experiment [1] is 200 µg/mL (≈ 536 µM); in experiment [2], 1000 µg/mL (≈ 2680 µM); in experiment [3], greater than 1000 µg/mL; in experiment [5] it was 500 µg/mL (≈ 1340 µM); in experiment [6], 250 µg/mL (≈ 670 µM); in experiment [7] it was 200 µg/mL (≈ 536 µM). In experiment [4], this molecule returned an MIC90 of 500 µg/mL (≈ 1340 µM).

On to `O=C(c1ccc(-c2cc3c(ccc4ccccc43)oc2=O)nc1)c1cc(Cl)ccc1O`, for which the MIC99 in experiment [1] was found to be 125 µg/mL (≈ 292 µM); in experiment [2], 1000 µg/mL (≈ 2340 µM); in experiment [3], 100 µg/mL (≈ 234 µM); in experiment [5], 100 µg/mL (≈ 234 µM); in experiment [6], 250 µg/mL (≈ 584 µM); in experiment [7], 250 µg/mL (≈ 584 µM). The MIC90 in experiment [4] came to 500 µg/mL (≈ 1170 µM).

`O=C(c1ccc(-c2cc3ccccc3oc2=O)nc1)c1ccccc1O`: the MIC99 worked out at 250 µg/mL (≈ 728 µM) in experiment [1]; 500 µg/mL (≈ 1460 µM) in experiment [2]; 1000 µg/mL (≈ 2910 µM) in experiment [3]; 200 µg/mL (≈ 583 µM) in experiment [5]; 125 µg/mL (≈ 364 µM) in experiment [6]; 100 µg/mL (≈ 291 µM) in experiment [7]. Besides, the MIC90 in experiment [4] was found to be 1000 µg/mL (≈ 2910 µM).

As for `O=C(c1ccc(-c2cc3cc(Br)ccc3oc2=O)nc1)c1ccccc1O`, the MIC99 in experiment [1] was 100 µg/mL (≈ 237 µM); in experiment [2], 200 µg/mL (≈ 474 µM); in experiment [3] it was greater than 1000 µg/mL; in experiment [5], 200 µg/mL (≈ 474 µM); in experiment [6] it was 125 µg/mL (≈ 296 µM); in experiment [7] it was 50 µg/mL (≈ 118 µM). Moreover, the MIC90 in experiment [4] stood at 250 µg/mL (≈ 592 µM).

On to `Cc1ccc(O)c(C(=O)c2ccc(-c3cc4c(ccc5ccccc54)oc3=O)nc2)c1`, for which the MIC99 is 100 µg/mL (≈ 245 µM) in experiment [1]; 500 µg/mL (≈ 1230 µM) in experiment [2]; 1000 µg/mL (≈ 2450 µM) in experiment [3]; 125 µg/mL (≈ 307 µM) in experiment [5]; 250 µg/mL (≈ 614 µM) in experiment [6]; 200 µg/mL (≈ 491 µM) in experiment [7]. Also, in experiment [4], the MIC90 amounted to 1000 µg/mL (≈ 2450 µM).

In the case of `O=C(c1ccc(-c2cc3ccccc3oc2=O)nc1)c1cc(Cl)ccc1O`, the MIC99 was 200 µg/mL (≈ 529 µM) in experiment [1]; 500 µg/mL (≈ 1320 µM) in experiment [2]; greater than 1000 µg/mL in experiment [3]; 250 µg/mL (≈ 662 µM) in experiment [5]; 250 µg/mL (≈ 662 µM) in experiment [6]; 250 µg/mL (≈ 662 µM) in experiment [7]. The same molecule gave an MIC90 in experiment [4] of 250 µg/mL (≈ 662 µM).

In the case of `CC1(C)S[C@@H]2[C@H](NC(=O)[C@H](N)c3ccccc3)C(=O)N2[C@H]1C(=O)O` [AMPICILLIN], the MIC99 amounted to 250 µg/mL (≈ 715 µM) in experiment [1], 250 µg/mL (≈ 715 µM) in experiment [5], 100 µg/mL (≈ 286 µM) in experiment [6] and 100 µg/mL (≈ 286 µM) in experiment [7].

Turning to `COC1=CC(=O)C[C@@H](C)[C@]12Oc1c(Cl)c(OC)cc(OC)c1C2=O` [GRISEOFULVIN], the MIC99 in experiment [2] was 500 µg/mL (≈ 1420 µM); in experiment [3], 100 µg/mL (≈ 283 µM).

As to `O=C(c1ccc(-c2cc3cc(Br)ccc3oc2=O)nc1)c1cc(Cl)ccc1O`, the MIC99 in experiment [1] is 100 µg/mL (≈ 219 µM); in experiment [2], 100 µg/mL (≈ 219 µM); in experiment [3], greater than 1000 µg/mL; in experiment [5], 62.5 µg/mL (≈ 137 µM); in experiment [6], 100 µg/mL (≈ 219 µM); in experiment [7], 62.5 µg/mL (≈ 137 µM). Besides, the MIC90 in experiment [4] was determined as 1000 µg/mL (≈ 2190 µM).

For the molecule `O=C(c1ccc(-c2cc3c(ccc4ccccc43)oc2=O)nc1)c1ccccc1O`, the MIC99 in experiment [1] was 100 µg/mL (≈ 254 µM); in experiment [2] it was 250 µg/mL (≈ 635 µM); in experiment [3], 500 µg/mL (≈ 1270 µM); in experiment [5] it was 100 µg/mL (≈ 254 µM); in experiment [6] it was 250 µg/mL (≈ 635 µM); in experiment [7], 200 µg/mL (≈ 508 µM). For the same molecule, the MIC90 in experiment [4] stood at 250 µg/mL (≈ 635 µM).

Take NYSTATIN: the MIC99 in experiment [2] and in experiment [3] was 100 µg/mL in each case.

`COc1cccc2cc(-c3ccc(C(=O)c4cc(Cl)ccc4O)cn3)c(=O)oc12`: the MIC99 in experiment [1] was 200 µg/mL (≈ 490 µM); in experiment [2], greater than 1000 µg/mL; in experiment [3] it was greater than 1000 µg/mL; in experiment [5], 200 µg/mL (≈ 490 µM); in experiment [6], 200 µg/mL (≈ 490 µM); in experiment [7], 125 µg/mL (≈ 307 µM). In experiment [4], this molecule had an MIC90 of 500 µg/mL (≈ 1230 µM).

As for `COc1cccc2cc(-c3ccc(C(=O)c4cc(C)ccc4O)cn3)c(=O)oc12`, the MIC99 was determined as 250 µg/mL (≈ 645 µM) in experiment [1]; 1000 µg/mL (≈ 2580 µM) in experiment [2]; 500 µg/mL (≈ 1290 µM) in experiment [3]; 250 µg/mL (≈ 645 µM) in experiment [5]; 100 µg/mL (≈ 258 µM) in experiment [6]; 100 µg/mL (≈ 258 µM) in experiment [7]. Moreover, the MIC90 in experiment [4] is 62.5 µg/mL (≈ 161 µM).

With `Cc1ccc(O)c(C(=O)c2ccc(-c3cc4ccccc4oc3=O)nc2)c1`, the MIC99 came to 200 µg/mL (≈ 560 µM) in experiment [1]; 250 µg/mL (≈ 700 µM) in experiment [2]; 1000 µg/mL (≈ 2800 µM) in experiment [3]; 100 µg/mL (≈ 280 µM) in experiment [5]; 200 µg/mL (≈ 560 µM) in experiment [6]; 250 µg/mL (≈ 700 µM) in experiment [7]. The molecule also gave an MIC90 in experiment [4] of 100 µg/mL (≈ 280 µM).

In general, MIC99 refers to an inhibitory concentration at the 99% level, which refers to growth in some studies and to a panel of isolates in others. The MIC90 is the lowest concentration that inhibits either 90% of growth or 90% of the strains tested, depending on the study.
